Laboratory results reported in patent publication US20230203060A1 (GENFLEET THERAPEUTICS (SHANGHAI) INC., priority 2020, published 2023).
Structures can show the parent of a compound that is named as a salt. Where two headings read alike, the source gives them in different places.

Tests used:
[1] = tested on: A549 cells (KRAS G12S mutant); experiment: Cell proliferation inhibition experiment, 3D spheroid, CellTiter-Glo, A549; format: cell-based, human; settings: A549 (KRAS G12S mutant) 3D spheroid, 5 days with compound, CellTiter-Glo, read-out: A549 IC50
Method in brief: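 Cells seeded in 2% FBS medium in spheroid plates (800 H358 or 400 A549 per well), grown overnight to form 3D spheroids, then exposed to 3.16-fold compound dilutions (0.1% DMSO) for 5 days. CellTiter-Glo luminescence gave inhibition vs DMSO and medium blanks; IC50 by four-parameter fit.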

[2] = tested on: KRAS G12C mutant MIA PaCa-2 cells; experiment: Cell proliferation inhibition experiment, 3D spheroid, CellTiter-Glo, MIA PaCa-2; format: cell-based, human; settings: 3D cell model in 384-well spheroid plate, 5 days, CellTiter-Glo, read-out: MIA-PaCa2 IC50
Method in brief: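 200 MIA PaCa-2 cells/well grown overnight as 3D spheroids, then exposed to 3.16-fold compound dilutions (0.1% DMSO final) for 5 days. Viability read by CellTiter-Glo luminescence; inhibition calculated against DMSO and medium-only controls, and IC50 fitted by four-parameter model.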

[3] = Homo sapiens, MIA PaCa-2, 120 h

SMILES	IC50 ([1]; Homo sapiens, A549, 120 h) [nM]	IC50 [2, 3] [nM]	IC50 [1] [nM]	IC50 [2] [nM]
C=CC(=O)N1CCN2C(=O)c3c(N4CC(C#N)CC4(C)C)nc(-c4c(O)cccc4F)c(Cl)c3OC[C@H]2C1 (stereo partly drawn) [Z275, (6aR)-8-acryloyl-1-(4-cyano-2,2-dimethylpyrrolidin-1-yl)-4-chloro-3-(2-fluoro-6-hydroxyphenyl)-6,6a,7,8,9,10-hexahydro-12H-pyrazino[2,1-c]pyrido[3,4-f][1,4]oxazepin-12-one]	7330	5		
C=CC(=O)N1CCN2C(=O)c3c(N4C[C@@H](O)CC4(C)C)nc(-c4c(O)cccc4F)c(F)c3OC[C@H]2C1 (single isomer, unassigned) [Z256-1]	12100	5		
C=CC(=O)N1CCN2C(=O)c3c(N4CCCC4(C)C)nc(-c4c(O)cccc4F)c(Cl)c3OC[C@H]2C1 [Z22, (6aR)-8-acryloyl-4-chloro-1-(2,2-dimethylpyrrolidin-1-yl)-3-(2-fluoro-6-hydroxyphenyl)-6,6a,7,8,9,10-hexahydro-12H-pyrazino[2,1-c]pyrido[3,4-f][1,4]oxazepin-12-one]	> 30000	7		
C=CC(=O)N1CCN2C(=O)c3c(N4CC(C#N)CC4(C)C)nc(-c4c(O)cccc4F)c(F)c3OC[C@H]2C1 (some centres unmarked) [Z335]	> 30000	18		
C=CC(=O)N1CCN2C(=O)c3c(N4Cc5cn(C)nc5[C@H]4C)nc(-c4c(O)cccc4F)c(Cl)c3OC[C@H]2C1 (single isomer, unassigned) [Z291-1S, trifluoroacetate]	9220	30.7		
C=CC(=O)N1CCN2C(=O)c3c(N4C[C@@H](O)CC4(C)C)nc(-c4c(F)ccc(Cl)c4O)c(F)c3OC[C@H]2C1 (single isomer, unassigned) [Z341-1]	11100	24		
C=CC(=O)N1CCN2C(=O)c3c(N4CCN(C(C)=O)C(C)(C)C4)nc(-c4c(O)cccc4F)c(Cl)c3OC[C@H]2C1 [Z315, (6aR)-1-(4-acetyl-3,3-dimethylpiperazin-1-yl)-8-acryloyl-4-chloro-3-(2-fluoro-6-hydroxyphenyl)-6,6a,7,8,9,10-hexahydro-12H-pyrazino[2,1-c]pyrido[3,4-f][1,4]oxazepin-12-one]	> 30000	9.6		
C=CC(=O)N1CCN2C(=O)c3c(N4C[C@@H](O)CC4(C)C)nc(-c4c(F)ccc(F)c4O)c(F)c3OC[C@H]2C1 (single isomer, unassigned) [Z449-1]	> 30000	22		
C=CC(=O)N1CCN2C(=O)c3c(Nc4c(C(C)C)ncnc4C(C)C)nc(-c4c(O)cccc4F)c(Cl)c3OC[C@H]2C1 [Z15, (6aR)-8-acryloyl-4-chloro-1-((4,6-diisopropylpyrimidin-5-yl)amino)-3-(2-fluoro-6-hydroxyphenyl)-6,6a,7,8,9,10-hexahydro-12H-pyrazino[2,1-c]pyrido[3,4-f][1,4]oxazepin-12-one]	19000	15		
C=CC(=O)N1CCN2C(=O)c3c(N4Cc5nn(C)cc5[C@@H]4C)nc(-c4c(O)cccc4F)c(Cl)c3OC[C@H]2C1 (single isomer, unassigned) [Z345-2]	9400	17		
C=CC(=O)N1CCN2C(=O)c3c(N4CCN(C)C5(CC5)C4)nc(-c4c(O)cccc4F)c(Cl)c3OC[C@H]2C1 [Z83, (6aR)-8-acryloyl-4-chloro-3-(2-fluoro-6-hydroxyphenyl)-1-(4-methyl-4,7-diazaspiro[2 .5]octan-7-yl)-6,6a,7,8,9,10-hexahydro-12H-pyrazino[2,1-c]pyrido[3,4-f][1,4]oxazepin-12 (6aH)-one]	> 10000	37.4		
C=CC(=O)N1CCN2C(=O)c3c(N4CC[C@H](OC)[C@@H]4C)nc(-c4c(O)cccc4F)c(Cl)c3OC[C@H]2C1 [Z347-1, (6aR)-8-acryloyl-4-chloro-3-(2-fluoro-6-hydroxyphenyl)-1-((2S,3S)-3-methoxy-2-methylpyrrolidin-1-yl)-6,6a,7,8,9,10-hexahydro-12H-pyrazino[2,1-c]pyrido[3,4-f][1,4]oxazepin-12-one]	9550	4		
C=CC(=O)N1CCN2C(=O)c3c(N4C[C@@H](OC)CC4(C)C)nc(-c4c(O)cccc4F)c(F)c3OC[C@H]2C1 (single isomer, unassigned) [Z256a-1]	9160	11.6		
C=CC(=O)N1CCN2C(=O)c3c(N4C[C@H](N(C)C)CC4(C)C)nc(-c4c(O)cccc4F)c(Cl)c3OC[C@H]2C1 (single isomer, unassigned) [Z324-2]	4650	6.1		
C=CC(=O)N1CCN2C(=O)c3c(N4CC(N(C)C5COC5)CC4(C)C)nc(-c4c(O)cccc4F)c(Cl)c3OC[C@H]2C1 (stereo partly drawn) [Z326, (6aR)-8-acryloyl-4-chloro-1-(2,2-dimethyl-4-(methyl(oxetan-3-yl)amino)pyrrolidin-1-yl)-3-(2-fluoro-6-hydroxyphenyl)-6,6a,7,8,9,10-hexahydro-12H-pyrazino[2,1-c]pyrido[3,4-f][1,4]oxazepin-12-one]	8840	0.9		
C=CC(=O)N1CCN2C(=O)c3c(N4CCC(OC)C4(C)C)nc(-c4c(O)cccc4F)c(Cl)c3OC[C@H]2C1 (stereo partly drawn) [Z241a, (6aR)-8-acryloyl-4-chloro-3-(2-fluoro-6-hydroxyphenyl)-1-(3-methoxy-2,2-dimethylpyrrolidin-1-yl)-6,6a,7,8,9,10-hexahydro-12H-pyrazino[2,1-c]pyrido[3,4-f][1,4]oxazepin-12-one]	4940	2.4		

Results, then the molecule that gave them:

IC50 ([1]; Homo sapiens, A549, 120 h) [nM]	IC50 [2, 3] [nM]	IC50 [1] [nM]	IC50 [2] [nM]	SMILES
5530	7.7			C=CC(=O)N1CCN2C(=O)c3c(N4C[C@@H](N(C)C)C[C@@H]4C)nc(-c4c(O)cccc4F)c(Cl)c3OC[C@H]2C1 [Z237-2, (6aR)-8-acryloyl-4-chloro-1-((2S,4S)-4-(dimethylamino)-2-methylpyrrolidin-1-yl)-3-(2-fluoro-6-hydroxyphenyl)-6,6a,7,8,9,10-hexahydro-12H-pyrazino[2,1-c]pyrido[3,4-f][1,4]oxazepin-12-one]
26300	10.9			C=CC(=O)N1CCN2C(=O)c3c(N4CCN(S(C)(=O)=O)C[C@@H]4C)nc(-c4c(O)cccc4F)c(Cl)c3OC[C@H]2C1 [Z318-1, (6aR)-8-acryloyl-1-((S)-2-methyl-4-(methylsulfonyl)piperazin-1-yl)-4-chloro-3-(2-fluoro-6-hydroxyphenyl)-6,6a,7,8,9,10-hexahydro-12H-pyrazino[2,1-c]pyrido[3,4-f][1,4]oxazepin-12-one]
		27100	6	C=CC(=O)N1CCN2C(=O)c3c(N4CCN(C)C(C)C4C)nc(-c4c(O)cccc4F)c(Cl)c3OC[C@H]2C1 (stereo partly drawn) [Z369, (6aR)-8-acryloyl-4-chloro-3-(2-fluoro-6-hydroxyphenyl)-1-(2,3,4-trimethylpiperazin-1-yl)-6,6a,7,8,9,10-hexahydro-12H-pyrazino[2,1-c]pyrido[3,4-f][1,4]oxazepin-12-one]
> 30000	3.6			C=CC(=O)N1CCN2C(=O)c3c(N4C[C@@H](OC)C[C@@H]4C)nc(-c4c(O)cccc4F)c(Cl)c3OC[C@H]2C1 [Z260a, (6aR)-8-acryloyl-4-chloro-3-(2-fluoro-6-hydroxyphenyl)-1-((2S,4S)-4-methoxy-2-methylpyrrolidin-1-yl)-6,6a,7,8,9,10-hexahydro-12H-pyrazino[2,1-c]pyrido[3,4-f][1,4]oxazepin-12-one]
> 30000	12			C=CC(=O)N1CCN2C(=O)c3c(N4CCN(C)C(=O)[C@@H]4C)nc(-c4c(O)cccc4F)c(Cl)c3OC[C@H]2C1 [Z311-1, (6aR)-8-actyloyl-4-chloro-1-((S)-2,4-dimethyl-3-oxopiperazin-1-yl)-3-(2-fluoro-6-hydroxyphenyl)-6,6a,7,8,9,10-hexahydro-12H-pyrazino[2,1-c]pyrido[3,4-f][1,4]oxazepin-12-one]
6800	18			C=CC(=O)N1CCN2C(=O)c3c(N4CCN(C)C[C@@H]4C)nc(-c4c(O)ccc(Cl)c4F)c(Cl)c3OC[C@H]2C1 [Z343, (6aR)-8-acryloyl-4-chloro-3-(3-chloro-2-fluoro-6-hydroxyphenyl)-1-((S)-2,4-dimethylpiperazin-1-yl)-6,6a,7,8,9,10-hexahydro-12H-pyrazino[2,1-c]pyrido[3,4-f][1,4]oxazepin-12-one]
3060	16			C=CC(=O)N1CCN2C(=O)c3c(N4CCN(C)C[C@@H]4C)nc(-c4c(F)ccc(Cl)c4O)c(Cl)c3OC[C@H]2C1 [Z342, (6aR)-8-acryloyl-4-chloro-3-(3-chloro-6-fluoro-2-hydroxyphenyl)-1-((S)-2,4-dimethylpiperazin-1-yl)-6,6a,7,8,9,10-hexahydro-12H-pyrazino[2,1-c]pyrido[3,4-f][1,4]oxazepin-12-one]
12300	9			C=CC(=O)N1CCN2C(=O)c3c(N4CC[C@@H](OC)[C@@H]4C)nc(-c4c(O)cccc4F)c(Cl)c3OC[C@H]2C1 [Z338-1, (6aR)-8-acryloyl-4-chloro-3-(2-fluoro-6-hydroxyphenyl)-1-((2S,3R)-3-methoxy-2-methylpyrrolidin-1-yl)-6,6a,7,8,9,10-hexahydro-12H-pyrazino[2,1-c]pyrido[3,4-f][1,4]oxazepin-12-one]
8920	1.7			C=CC(=O)N1CCN2C(=O)c3c(N4CCN(C(=O)C5CC5)C[C@@H]4C)nc(-c4c(O)cccc4F)c(Cl)c3OC[C@H]2C1 [Z320-1, (6aR)-8-acryloyl-4-chloro-1-((S)-4-(cyclopropanecarbonyl)-2-methylpiperazin-1-yl)-3-(2-fluoro-6-hydroxyphenyl)-6,6a,7,8,9,10-hexahydro-12H-pyrazino[2,1-c]pyrido[3,4-f][1,4]oxazepin-12-one]
